In patent US20080306055A1, “Heterocyclic Mchr1 Antagonists And Their Use In Therapy” (ASTRAZENECA AB, priority 2004, published 2008):
pIC50: −log10 of the molar value.

What was measured:
[1] = biological target: T1, recombinant hMCHr1 (Homo sapiens, UniProt Q99705); assay: MCHr1 functional assay ([35S]GTPγS binding, membranes); assay type: biochemical; conditions: ED80 concentration of MCH, antagonist mode
T1 construct: purchased Euroscreen
Description: Membranes expressing recombinant hMCHr1 ([…] protein; Euroscreen) were prepared in assay buffer (50 mM HEPES, 100 mM NaCl, 5 mM MgCl2, 1 mM EDTA, 200 μM DTT, 20 μM GDP (Sigma) containing 0.1 μg/ml BSA, pH7.4) before assay. The assays were performed using membranes at 6 μg/well in an assay volume of 200 μL and the appropriate concentrations of compounds prepared in DMSO. The reaction was started by addition of 0.056 nM [^35S]GTPγS (Specific activity >1000 Ci/mmol; Amersham) and an ED80 concentration of MCH (determined for each membrane and each MCH batch). Non-specific binding was determined using 20 μM non-radiolabelled GTPγS. Plates were incubated for 45 min at 30° C. Free and bound GTPγS were separated by filtration binding using GF/B filter mats presoaked in wash buffer (50 mM Tris, 5 mM MgCl2, 50 mM NaCl, pH 7.4) using a Micro96 cell harvester (Skatron Instruments) and the filters then dried at 50° C. before counting using a 1450 Microbeta TRILUX (Wallac).
Data are means ±SD for experiments performed in triplicate. IC50 values of antagonists were determined using non-linear regression analysis of concentration response curves using Activity Base. For instance, the following IC50 values were obtained for the compounds of the following examples: […]

[2] = biological target: T2, human Melanin concentrating hormone receptor 1 (hMCHr1) (Homo sapiens, UniProt Q99705); assay: MCH1 receptor radioligand binding (125I-MCH, CHO-K1 membranes); conditions: 125I-MCH displacement, membranes from CHO-K1 cells expressing hMCHr1; read-out: IC50 in human MCHr1 binding assay
T2 construct: purchased Euroscreen; host or cells: CHO-K1
T2 sequence (Q99705 whole entry): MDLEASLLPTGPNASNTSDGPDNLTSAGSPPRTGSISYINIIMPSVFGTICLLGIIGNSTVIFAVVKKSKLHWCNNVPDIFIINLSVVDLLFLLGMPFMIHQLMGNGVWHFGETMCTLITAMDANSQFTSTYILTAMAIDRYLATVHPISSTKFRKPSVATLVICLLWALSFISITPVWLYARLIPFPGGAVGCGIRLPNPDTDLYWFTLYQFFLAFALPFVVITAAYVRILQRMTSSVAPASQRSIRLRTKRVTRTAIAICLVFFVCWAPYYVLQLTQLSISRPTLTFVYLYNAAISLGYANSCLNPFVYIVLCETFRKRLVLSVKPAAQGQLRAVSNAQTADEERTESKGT
Description: MCH1 Receptor Radioligand Binding.
Assays were performed on membranes prepared from CHO-K1 cells expressing the human Melanin concentrating hormone receptor 1 (hMCHr1, 5.45 pmol/mg protein; Euroscreen). Assays were performed in a 96-well plate format in a final reaction volume of 200 μl per well. Each well contained 6 μg of membrane proteins diluted in binding buffer (50 mM Tris, 3 mM MgCl2, 0.05% bovine serum albumin and the radioligand ^125I-MCH (IM344 Amersham) was added to give 10 000 cpm (counts per minute) per well. Each well contained 2 μl of the appropriate concentration of competitive antagonist prepared in DMSO and left to stand at 30° C. for 60 minutes. Non-specific binding was determined as that remaining following incubation with […] MCH (Melanin concentrating hormone, H-1482 Bachem). The reaction was terminated by transfer of the reaction to GF/A filters using a Micro96 Harvester (Skatron Instruments, Norway). Filters were washed with assay buffer. Radioligand retained on the filters was quantified using a 1450 Microbeta TRILUX (Wallac, Finland).
Non-specific binding was subtracted from all values determined. Maximum binding was that determined in the absence of any competitor following subtraction of the value determined for non-specific binding. Binding of compounds at various concentrations was plotted according to the equation
A is the bottom plateau of the curve i.e. the final minimum y value
B is the top of the plateau of the curve i.e. the final maximum y value
C is the x value at the middle of the curve. This represents the log EC50 value when A+B=100
D is, the slope factor. x is the original known x values. y is the original known y values.

[3] = biological target: HERG (Homo sapiens, UniProt Q12809); assay: HERG activity (planar-array-based voltage clamp); assay type: cell-based; conditions: modified planar-array voltage clamp method
Sequence of HERG (Q12809 whole entry): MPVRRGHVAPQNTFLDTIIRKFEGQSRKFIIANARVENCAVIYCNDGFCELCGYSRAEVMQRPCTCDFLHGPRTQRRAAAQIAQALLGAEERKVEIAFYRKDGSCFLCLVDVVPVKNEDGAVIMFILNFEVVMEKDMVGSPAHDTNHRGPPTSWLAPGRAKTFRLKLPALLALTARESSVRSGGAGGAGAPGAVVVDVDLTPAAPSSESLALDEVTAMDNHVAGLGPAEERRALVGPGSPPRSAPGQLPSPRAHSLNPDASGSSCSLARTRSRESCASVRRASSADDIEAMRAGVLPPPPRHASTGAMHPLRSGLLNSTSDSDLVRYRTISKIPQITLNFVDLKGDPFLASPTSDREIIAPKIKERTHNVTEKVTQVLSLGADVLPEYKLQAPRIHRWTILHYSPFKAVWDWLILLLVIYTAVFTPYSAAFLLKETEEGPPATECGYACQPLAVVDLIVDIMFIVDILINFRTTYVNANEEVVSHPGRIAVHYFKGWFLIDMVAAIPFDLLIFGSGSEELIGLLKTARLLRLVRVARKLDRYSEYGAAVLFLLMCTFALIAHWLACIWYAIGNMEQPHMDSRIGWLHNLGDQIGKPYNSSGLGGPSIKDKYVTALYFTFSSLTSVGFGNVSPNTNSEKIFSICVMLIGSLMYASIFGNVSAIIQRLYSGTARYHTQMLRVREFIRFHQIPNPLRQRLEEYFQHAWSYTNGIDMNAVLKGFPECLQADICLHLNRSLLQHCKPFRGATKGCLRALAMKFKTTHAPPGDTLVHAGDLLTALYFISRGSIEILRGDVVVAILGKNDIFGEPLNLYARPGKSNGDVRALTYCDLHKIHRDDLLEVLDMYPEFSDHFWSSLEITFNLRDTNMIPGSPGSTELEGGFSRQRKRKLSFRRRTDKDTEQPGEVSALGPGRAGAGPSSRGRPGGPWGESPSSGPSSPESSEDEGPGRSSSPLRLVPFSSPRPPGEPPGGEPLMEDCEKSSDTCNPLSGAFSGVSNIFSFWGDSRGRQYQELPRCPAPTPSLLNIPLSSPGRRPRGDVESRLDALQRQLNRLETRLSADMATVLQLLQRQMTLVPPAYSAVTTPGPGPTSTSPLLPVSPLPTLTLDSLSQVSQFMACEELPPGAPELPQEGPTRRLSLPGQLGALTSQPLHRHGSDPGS
Description: HERG testing was performed using a modified version of the method described by Kiss L, Bennett P B, Uebele V N, Koblan K S, Kane S A, Neagle B, Schroeder K. “High throughput ion-channel pharmacology: planar-array-based voltage clamp” Assay Drug Dev Technol. 1, 127-35. (2003).

T1 sequence (Q99705 whole entry): as the sequence (Q99705 whole entry) above

| Structure (SMILES) | pIC50 [1] | pIC50 [2] | pIC50 [3] |
| --- | --- | --- | --- |
| O=C(NC1CCN(Cc2ccn(-c3ccc(C(F)(F)F)cc3)c2)CC1)C(c1ccccc1)c1ccccc1 [Example 1, 2,2-diphenyl-N-[1-({1-[4-(trifluoromethyl)phenyl]-1H-pyrrol-3-yl}methyl)piperidin-4-yl]acetamide] | 7.38 |  |  |
| O=C(CC1CCN(Cc2ccn(-c3ccc(C(F)(F)F)cc3)c2)CC1)NCc1ccc(F)c(F)c1 [Example 2, N-(3,4-difluorobenzyl)-2-[1-({1-[4-(trifluoromethyl)phenyl]-1H-pyrrol-3-yl}methyl)piperidin-4-yl]acetamide] | 6.95 | 7.92 |  |
| O=C(NCCc1ccccc1)C1CCN(Cc2ccn(-c3ccc(C(F)(F)F)cc3)c2)CC1 [Example 3, N-(2-phenylethyl)-1-({1-[4-(trifluoromethyl)phenyl]-1H-pyrrol-3-yl}methyl)piperidine-4-carboxamide] |  | 7.85 |  |
| O=C(Nc1ccc(Cl)cc1Cl)NC1CCN(Cc2ccn(-c3ccc(C(F)(F)F)cc3)c2)CC1 [Example 6, N-(2,4-dichlorophenyl)-N′-[1-({1-[4-(trifluoromethyl)phenyl]-1H-pyrrol-3-yl}methyl)piperidin-4-yl]urea] |  | 7.14 |  |
| CC(O)CCNC(=O)NC1CCN(Cc2ccn(-c3ccc(C(F)(F)F)cc3)c2)CC1 (stereo not drawn) [Example 76, N-(3-hydroxybutyl)-N′-[1-({1-[4-(trifluoromethyl)phenyl]-1H-pyrrol-3-yl}methyl)piperidin-4-yl]urea] |  |  | < 5.30 |
